According to PMC3108484 (Frontiers in Pharmacology, 2011):
Like-named read-outs stand apart in the source and are kept apart here.

Columns and labels:
5-HT4 receptor = 5-HT4 receptor (Cavia porcellus, UniProt O70528); assay: Guinea pig colonic longitudinal muscle/myenteric plexus; conditions: for Guinea pig colonic LMMP contractile activity IA (mean % 5-HT max ± SEM): isolated tissue, % of primed 5-HT (0.3 μM) maximum
rat esophagus = assay: Rat esophageal relaxation; assay type: in vivo; conditions: cumulative i.d. dosing, anesthetized rats
[1] = system: canine antrum, duodenum, and jejunum; assay: Dog gastrointestinal contractility; assay type: in vivo; conditions: oral, conscious fasted dogs; TD-8954 0.01 and 0.03 mg/kg, tegaserod 0.1 and 0.3 mg/kg
[2] = target: human 5-HT4(c) (h5-HT4(c)) receptor (Homo sapiens, UniProt Q13639); assay: biochemical
hERG potassium channel = hERG potassium channel (Homo sapiens, UniProt Q12809); assay: in vitro
human 5-HT4(c) receptor = human 5-HT4(c) receptor (Homo sapiens, UniProt Q13639); assay type: cell-based; conditions: for pKb of GR113808 (Schild regression): GR113808 0.6, 1.7, or 5 nM, 95% CI
human 5-HT4(c) receptor, sequence (Q13639 1-380 isoform Q13639-4): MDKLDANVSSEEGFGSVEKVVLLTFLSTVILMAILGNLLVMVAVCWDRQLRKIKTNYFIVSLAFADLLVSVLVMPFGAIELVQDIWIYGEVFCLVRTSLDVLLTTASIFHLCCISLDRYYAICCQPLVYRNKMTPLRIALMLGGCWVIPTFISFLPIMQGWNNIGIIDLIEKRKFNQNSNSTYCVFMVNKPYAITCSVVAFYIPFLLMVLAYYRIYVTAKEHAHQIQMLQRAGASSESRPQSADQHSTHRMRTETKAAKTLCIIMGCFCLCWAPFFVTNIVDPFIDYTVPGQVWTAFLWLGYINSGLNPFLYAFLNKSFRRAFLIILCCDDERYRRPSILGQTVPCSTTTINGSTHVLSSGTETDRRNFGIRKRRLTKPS

5-HT4 receptor, sequence (O70528 whole entry): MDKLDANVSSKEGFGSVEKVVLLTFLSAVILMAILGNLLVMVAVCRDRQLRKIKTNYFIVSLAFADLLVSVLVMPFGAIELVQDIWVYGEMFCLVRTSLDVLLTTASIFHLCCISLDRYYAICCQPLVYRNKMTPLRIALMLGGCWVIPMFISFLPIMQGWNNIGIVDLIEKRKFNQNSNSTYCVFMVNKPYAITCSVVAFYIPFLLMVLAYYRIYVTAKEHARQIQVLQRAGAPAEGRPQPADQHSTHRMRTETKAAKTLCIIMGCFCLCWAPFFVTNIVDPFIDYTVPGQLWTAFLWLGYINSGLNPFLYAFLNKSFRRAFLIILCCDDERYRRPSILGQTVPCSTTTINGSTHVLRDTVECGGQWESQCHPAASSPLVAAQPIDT
human 5-HT4(c) (h5-HT4(c)) receptor, sequence (Q13639 1-380 isoform Q13639-4): as the sequence (Q13639 1-380 isoform Q13639-4) above
hERG potassium channel, sequence (Q12809 whole entry): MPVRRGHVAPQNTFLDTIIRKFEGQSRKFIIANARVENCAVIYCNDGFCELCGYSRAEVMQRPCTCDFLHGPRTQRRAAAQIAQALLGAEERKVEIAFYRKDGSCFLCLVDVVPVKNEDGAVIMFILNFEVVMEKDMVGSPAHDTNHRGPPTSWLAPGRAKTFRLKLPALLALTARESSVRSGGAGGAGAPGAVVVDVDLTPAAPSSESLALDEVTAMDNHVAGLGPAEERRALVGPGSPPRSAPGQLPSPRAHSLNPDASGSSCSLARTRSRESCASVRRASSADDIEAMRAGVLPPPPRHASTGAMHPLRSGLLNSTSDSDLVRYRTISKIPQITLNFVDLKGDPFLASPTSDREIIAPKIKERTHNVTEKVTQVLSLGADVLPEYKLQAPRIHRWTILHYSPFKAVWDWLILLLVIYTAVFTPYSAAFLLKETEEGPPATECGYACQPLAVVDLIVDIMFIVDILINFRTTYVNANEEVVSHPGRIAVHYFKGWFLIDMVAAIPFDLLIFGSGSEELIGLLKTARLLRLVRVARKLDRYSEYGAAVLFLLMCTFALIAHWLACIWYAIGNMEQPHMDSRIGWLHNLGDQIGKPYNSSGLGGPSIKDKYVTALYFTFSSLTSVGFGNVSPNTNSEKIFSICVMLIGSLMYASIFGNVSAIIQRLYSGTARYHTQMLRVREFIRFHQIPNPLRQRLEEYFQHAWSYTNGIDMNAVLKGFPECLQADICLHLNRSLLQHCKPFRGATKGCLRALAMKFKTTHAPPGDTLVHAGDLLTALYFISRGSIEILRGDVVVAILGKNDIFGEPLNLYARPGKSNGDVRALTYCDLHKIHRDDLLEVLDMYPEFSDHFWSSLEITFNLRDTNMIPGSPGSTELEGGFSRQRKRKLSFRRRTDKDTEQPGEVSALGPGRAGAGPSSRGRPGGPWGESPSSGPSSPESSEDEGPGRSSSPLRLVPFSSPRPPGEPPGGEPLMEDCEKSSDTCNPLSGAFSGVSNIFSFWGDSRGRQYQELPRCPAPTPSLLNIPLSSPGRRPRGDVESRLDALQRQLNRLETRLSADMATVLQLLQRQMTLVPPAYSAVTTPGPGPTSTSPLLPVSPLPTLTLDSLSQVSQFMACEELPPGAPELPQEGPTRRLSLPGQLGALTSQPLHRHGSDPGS

[H]/N=C(/NCCCCC)N/N=C/c1c[nH]c2ccc(OC)cc12 [Tegaserod, tegaserod]
Guinea pig colonic LMMP contractile activity IA (mean % 5-HT max ± SEM) (5-HT4 receptor): 45 ± 13 % 5-HT max | Guinea pig colonic LMMP contractile activity IA (mean % 5-HT max ± SEM) (5-HT4 receptor; listed as tegaserod): 45 % 5-HT max | dose associated with a relaxation response of 0.1 mm (rat esophagus): 2.43 mg/kg | effect on contractility in the antrum, duodenum, and jejunum [1]: increases in contractility | Ki [2]: 0.00251 µM

COCCCN1CCC(NC(=O)c2cc(Cl)c(N)c3c2OCC3)CC1 [Prucalopride, prucalopride]
dose associated with a relaxation response of 0.1 mm (rat esophagus): 0.30 mg/kg

COc1cc(N)c(Cl)cc1C(=O)NC1CCN(CCCOc2ccc(F)cc2)CC1OC (stereo not shown) [Cisapride, cisapride]
Guinea pig colonic LMMP contractile activity IA (mean % 5-HT max ± SEM) (5-HT4 receptor): 75 ± 3 % 5-HT max | Guinea pig colonic LMMP contractile activity IA (mean % 5-HT max ± SEM) (5-HT4 receptor; listed as cisapride): 75 % 5-HT max | dose associated with a relaxation response of 0.1 mm (rat esophagus): 2.66 mg/kg | inhibition at 0.02 µM (hERG potassium channel): 65%

CCCCN1CCC(CNC(=O)c2c3n(c4ccccc24)CCCO3)CC1 [piboserod]
shift of the TD-8954 concentration–response curve (5-HT4 receptor; piboserod 0.3 μM, guinea pig colonic LMMP): 614 fold

Cn1cc(C(=O)OCC2CCN(CCNS(C)(=O)=O)CC2)c2ccccc21 [GR113808]
pKb of GR113808 (Schild regression) (human 5-HT4(c) receptor; against 5-HT, cAMP accumulation): 10.3 (95% CI: 10.2–10.4) | pKb of GR113808 (Schild regression) (human 5-HT4(c) receptor; against TD-8954, cAMP accumulation): 10.3 (95% CI: 10.2–10.5)

CCOc1cc(N)c(Cl)cc1C(=O)NCC1CN(Cc2ccc(F)cc2)CCO1 (stereo not shown) [Mosapride, mosapride]
EC50 (human 5-HT4(c) receptor): 0.501 µM | EC50 (5-HT4 receptor): 3.98 µM | Guinea pig colonic LMMP contractile activity IA (mean % 5-HT max ± SEM) (5-HT4 receptor): 37 ± 2 % 5-HT max | Guinea pig colonic LMMP contractile activity IA (mean % 5-HT max ± SEM) (5-HT4 receptor; listed as mosapride): 37 % 5-HT max | dose associated with a relaxation response of 0.1 mm (rat esophagus): 4.37 mg/kg | Ki [2]: 0.158 µM
